According to patent publication US8932563B2, “Higher loading zinc-containing films” (Colgate-Palmolive Company, priority 2009, dated 2015):

Assay: Zinc uptake from toothpaste onto artificial soft substrate
Type: in vitro ADME
Settings: for zinc uptake, ppm: Vitro-Skin incubated 1 hour, 1:2 dilution
Protocol: Zinc uptake experiments were performed to compare the amount of zinc delivered to an artificial soft substrate using the same level of zinc oxide films in toothpaste with different loadings. The films (Zn30 and Zn50) were incorporated into a MaxFresh Nite toothpaste base. The experiments included comparing:
Certain parameters for testing were kept constant for the experiments. They included:
Vitro-Skin incubated for 1 hour
1:2 dilution of toothpaste to deionized water
Two 5 mL washes of deionized water for 10 seconds
There also was an increase in binding with an increase in film concentration. The zinc uptake method quantifies the amount of zinc delivered to a soft substrate. Vitro-Skin was used as a model substrate because it mimics human skin. […] Also the films act as a delivery vehicle to deposit more zinc onto the substrate than its equivalent in powder form.

[1] = 1.0% film or powder in toothpaste

[O-2].[Zn+2] [ZnO Powder, Zinc Oxide]
zinc uptake, μg/cm^2 (0.15% powder in toothpaste): 5.7 μg/cm^2 | zinc uptake, ppm (0.15% powder in toothpaste): 2.05 ppm | zinc uptake, μg/cm^2 [1]: 21.5 μg/cm^2 | zinc uptake, ppm [1]: 59.7 ppm
